Here are results for one compound from EP4324461A1, “(E)-N-CINAMOYLAMINOALKANOLES WITH MELANOGENESIS INHIBITORY ACTIVITY” (UNIWERSYTET JAGIELLONSKI, priority 2022, dated 2024).

This data set deals with human reconstructed epidermis Episkin™. The data set can be described thus: Skin permeation in reconstructed human epidermis (Episkin). Format: in vitro ADME. As to the method:
The tested substance A-111 in a macrogol formulation (2% A-111 in the PEG400+PEG800 base) was applied onto the epidermis in an amount of approximately 10 mg/cm^2 ("finite dose application") using a sterile inoculation loop. The amount applied was weighed accurately. As a control, a macrogol formulation without the test substance was applied onto the epidermis. The finished experimental plate was incubated at 32 °C. At specific time intervals, aliquots of the receptor fluid (0.5 mL) were collected for the analysis and replaced with 0.5 mL of fresh receptor fluid. After 24 h of culture, all of the receptor fluid was collected. The examined tissue was washed with cotton buds soaked in methanol. The donor and receptor compartments were washed with methanol, and the epidermis was separated from the inserts and transferred to methanol. Samples were stored at -20 °C until analysis. The content (concentration) of the tested substance A-111 in the receptor fluid and in individual compartments: on the surface of the epidermis, in the epidermis, in the receptor fluid was determined using measurements in a microplate reader at 281 nm on 96-well plates transmitting ultraviolet radiation.
In order to confirm proper bioavailability, studies of the permeation of compound A-111 from a solution in PEG400 were performed in a model of reconstructed human epidermis. […] The tested substance A-111 was applied onto the epidermis in the form of a 2% PEG400 solution in an amount of 15 µL. The finished experimental plate was incubated at 32 °C. At specific time intervals, aliquots of the receptor fluid (0.5 mL) were collected for the analysis and replaced with fresh fluid. After 24 h of culture, all of the receptor fluid was collected. The examined tissue was washed with cotton buds soaked in methanol. The donor and receptor compartments were washed with methanol, and the epidermis was separated from the inserts and transferred to methanol. The content (concentration) of the tested substance A-111 in the acceptor fluid and in individual compartments: on the surface of the epidermis, in the epidermis, in the receptor fluid was determined using measurements in a microplate reader at 281nm on 96-well plates transmitting ultraviolet radiation.
Permeation studies of the A-111 compound from a cosmetic formulation were performed in a model of reconstructed human epidermis. […] 25 µL of the formulation containing the tested compound A-111 was applied to the epidermis. […] The content (concentration) of the tested substance A-111 in the receptor fluid and in individual compartments: on the surface of the epidermis, in the epidermis, in the receptor fluid was determined using measurements in a microplate reader at 281 nm on 96-well plates transmitting ultraviolet radiation.

Setting [1] is: 2% A-111 in the PEG400+PEG800 base, approx. 10 mg/cm^2, 24 h.

As to `O=C(/C=C/c1ccc(Cl)cc1)NCCCCCO` [Compound A-111, (2E)-3-(4-chlorophenyl)-N-(5-hydroxypentyl)prop-2-enamide], the “accumulation in the epidermis” value under setting [1] is recorded as “no accumulation of compound A-111 in the epidermis”. In addition, the “permeation through the epidermis” value reads like this: under setting [1], “crosses the epidermal barrier and has the potential to penetrate the dermis”; (2% PEG400 solution, 15 µL, 24 h) “crosses the epidermal barrier and has the potential to penetrate the dermis”; (25 µL of the cosmetic formulation (0.74% A-111), 24 h) “crosses the epidermal barrier and has the potential to penetrate the dermis”.
